Assay [1] deals with T1, Ferredoxin NADP+ reductase (FNR) (Chlamydomonas reinhardtii, UniProt P53991).
T1 construct: gene PETH; recombinant, purified; 39 kDa; FAD flavoprotein
The assay is described as follows: 1H NMR of cofactor released by denaturation. Format: binding. Particulars: prosthetic group.

The target of assay [2] is T2, IDH1 (isocitrate dehydrogenase 1) (Homo sapiens, UniProt O75874, R132H).
T2 construct: recombinant, purified; copurifies with NADP(H)
Put plainly: non-denaturing mass spectrometry; 1H NMR after denaturation. It is filed as binding. As to conditions: copurified; NMR identifies NADPH only; resting state, no substrate.

Assay [3] addresses T3, IDH1 (isocitrate dehydrogenase 1) (Homo sapiens, UniProt O75874).
T3 construct: recombinant, purified; copurifies with NADP(H)
Put plainly: 1H NMR of cofactor released by thermal denaturation; native MS; electrochemical retention. Format: binding. As to conditions: copurified; resting state, no substrate; part of a NADP+/NADPH mixture.

Assay [4] has as its target T2, IDH1 (isocitrate dehydrogenase 1). The assay is described as follows: electrochemical retention after buffer exchange and potential switch. It is filed as biochemical. As to conditions: nanoconfined with FNR; resting state; binds much less tightly than NADPH; pH 8, 10 mM MgCl2.

The results in this text go back to PMC9910440, “NADP(H)-dependent biocatalysis without adding NADP(H)” (Proceedings of the National Academy of Sciences of the …, 2022).

T2 sequence (O75874 whole entry R132H): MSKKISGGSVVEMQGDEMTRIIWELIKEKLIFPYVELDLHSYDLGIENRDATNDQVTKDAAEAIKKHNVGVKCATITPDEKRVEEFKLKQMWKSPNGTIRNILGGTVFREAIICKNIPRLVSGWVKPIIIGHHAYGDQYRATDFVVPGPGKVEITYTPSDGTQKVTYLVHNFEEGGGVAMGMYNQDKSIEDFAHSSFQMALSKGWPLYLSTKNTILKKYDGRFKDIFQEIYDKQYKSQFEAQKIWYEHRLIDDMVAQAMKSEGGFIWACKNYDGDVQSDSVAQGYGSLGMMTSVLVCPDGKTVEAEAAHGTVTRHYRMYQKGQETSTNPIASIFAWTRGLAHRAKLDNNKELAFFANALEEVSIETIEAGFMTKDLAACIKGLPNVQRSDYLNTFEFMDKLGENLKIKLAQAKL
T3 sequence (O75874 whole entry): as the sequence (O75874 whole entry R132H) above, with H132R counted along it
T1 sequence (P53991 36-354): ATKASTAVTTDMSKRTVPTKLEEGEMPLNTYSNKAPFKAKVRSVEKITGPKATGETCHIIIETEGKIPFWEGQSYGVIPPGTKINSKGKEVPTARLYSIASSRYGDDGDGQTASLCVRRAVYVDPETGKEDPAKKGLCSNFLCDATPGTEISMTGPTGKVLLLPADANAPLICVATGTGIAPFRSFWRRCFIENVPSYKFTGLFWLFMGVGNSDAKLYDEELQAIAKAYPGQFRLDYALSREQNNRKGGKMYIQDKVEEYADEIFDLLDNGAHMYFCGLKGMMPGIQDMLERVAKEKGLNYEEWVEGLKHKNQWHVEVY

For `Cc1cc2nc3c(=O)[nH]c(=O)nc-3n(C[C@H](O)[C@H](O)[C@H](O)COP(=O)(O)OP(=O)(O)OC[C@H]3O[C@@H](n4cnc5c(N)ncnc54)[C@H](O)[C@@H]3O)c2cc1C` [flavin adenine dinucleotide], in assay [1], the “1H NMR of cofactor released by denaturation” value is “release of its prosthetic group, flavin adenine dinucleotide (FAD), upon denaturation”.
`NC(=O)C1=CN([C@@H]2O[C@H](COP(=O)(O)OP(=O)(O)OC[C@H]3O[C@@H](n4cnc5c(N)ncnc54)[C@H](OP(=O)(O)O)[C@@H]3O)[C@@H](O)[C@H]2O)C=CC1` [NADPH]: in assay [2], the “NADP(H) active site occupancy” value is listed as ~ 97.5%. Further, the “1H NMR of cofactor released by thermal denaturation; native MS; electrochemical” value in assay [3] was “wild-type IDH1 (Fig. 1A) copurified with a mixture of NADP^+ and NADPH bound”.
As to `NC(=O)c1ccc[n+]([C@@H]2O[C@H](COP(=O)(O)OP(=O)(O)OC[C@H]3O[C@@H](n4cnc5c(N)ncnc54)[C@H](OP(=O)(O)O)[C@@H]3O)[C@@H](O)[C@H]2O)c1` [NADP^+], the “electrochemical retention after buffer exchange and potential switch” value in assay [4] is reported as “IDH1 R132H binds NADP^+ much less tightly than NADPH”. Besides, the “1H NMR of cofactor released by thermal denaturation; native MS; electrochemical” value in assay [3] is “wild-type IDH1 (Fig. 1A) copurified with a mixture of NADP^+ and NADPH bound”.
